Values of other authors as cited in PMC2409929 (British Journal of Cancer, 2004).
Marks after values point to notes of the source that are not given here.

Key:
[1] = system: topo-isomerase I; parameters: method as in Slatter et al, 1997; conditions: in vitro models; ref Slatter et al, 1997; cited from earlier work
[2] = N=6, mean±s.d., ref 16 (Herben et al, 1999), cited from earlier work
[3] = after irinotecan 140 mg m^−2: 10 mg m^−2 as 14-day prolonged infusions

CCc1c2c(nc3ccc(O)cc13)-c1cc3c(c(=O)n1C2)COC(=O)[C@]3(O)CC [SN-38, 7-ethyl-10-hydroxycamptothecin]
Potency as topo-isomerase I inhibitor relative to parent compound (irinotecan) [1]: 100–1000 times
Metabolic ratio (SN-38 AUC over irinotecan AUC) ([2]; 140 mg m^−2: 10 mg m^−2 irinotecan as 14-day prolonged infusions): 0.12±0.02 ^b
SN-38 AUC [2, 3]: 1.4 ± 0.3 µM·h
SN-38 AUCc (AUC per cycle) [2, 3]: 4.2 ± 0.9 µM·h
